# In patent US20150259331A1, “PROTOZOAN PARASITE GROWTH INHIBITORS” (Northeastern University, priority 2014, published 2015):
# Structures can show the parent of a compound that is named as a salt. Where two headings read alike, the source gives them in different places. Marks after values point to notes of the source that are not given here.
# Legend:
# [1] = system: L. major amastigote; test: L. major amastigote assay; format: cell-based
# [2] = system: P. falciparum C235; test: P. falciparum C235 assay; format: cell-based; details: read-out: P. falciparum C235 (EC50)
# [3] = system: P. falciparum D6; test: P. falciparum D6 assay; format: cell-based; details: strain D6
# [4] = system: L. major promastigote; test: L. major promastigote assay; format: cell-based
# [5] = system: T. cruzi; test: T. cruzi growth inhibition; format: cell-based, Trypanosoma cruzi; details: for inhibition at 10 µM: read-out: T. cruzi % inh at 10 μM
# [6] = system: P. falciparum W2; test: P. falciparum W2 assay; format: cell-based
# [7] = system: HepG2 cells; test: HepG2 cell toxicity (MTT) assay; format: cell-based
# Procedure: (§1) Then 2 μL of DMSO (control) or different concentrations of drugs prepared from 200× DMSO stocks were added to the cultures. […] All experiments were repeated thrice in independent studies where each dose was administered in duplicate (total n=6). HepG2 Cell Toxicity Assay. The 384 well MTT cytotoxicity assay is a modification of the MTT method described by Ferrari et al. optimized for 384-well throughput, with modifications described below.
# HepG2 Cell Toxicity assay. The 384 well MTT cytotoxicity assay is a modification of the MTT method described by Ferrari et al.^1 ENREF—26_ENREF—26_ENREF—26 optimized for 384 well throughput. […] 4.25 μL of diluted test compound was then added to the 38.3 μL of media in each well providing a 10 fold final dilution of compound. […] After a 48 hour incubation period, 8 μL of a 1.5 mg/ml solution of MTT diluted in complete MEM media was added to each well. All plates were subsequently incubated in the dark for 1 hour at room temperature. After incubation, the media and drugs in each well was removed by shaking plate over sink, the plates are then left to dry in hood for 15 minutes. […] Plates are put on a 3-D rotator for 15-30 minutes. Absorbance was determined in all wells using a Tecan iControl 1.6 Infinite plate reader.
# [8] = system: T. brucei brucei Lister 427; test: Trypanosome replication assay; format: cell-based, Trypanosoma brucei brucei; details: 48 h, 48 h, values ±7%
# Procedure: as §1, with “cultures. Cells were incubated at 37° C. for 48 h and counted with a hemocytometer.” for “cultures.”
# [9] = Plasmodium falciparum, strain C235
# [10] = Plasmodium falciparum, strain W2, read-out: P. falciparum W2 (EC50)
# [11] = Homo sapiens, HepG2, 48 h, MTT, 48 hour incubation, read-out: HepG2 IC50
# [12] = MTT, 48 hour incubation, read-out: HepG2 IC50
# [13] = Trypanosoma brucei, concentration giving 50% inhibition of growth of T brucei brucei Lister 427 cells, read-out: Tbb EC50
# [14] = Homo sapiens, HepG2, 48 h, read-out: HepG2 IC50, MTT, 48 hour incubation
# [15] = read-out: HepG2 IC50, MTT, 48 hour incubation
# [16] = Trypanosoma brucei, read-out: Tbb EC50, concentration giving 50% inhibition of growth of T brucei brucei Lister 427 cells
# [17] = Plasmodium falciparum, W2, read-out: P. falciparum W2 (EC50)
# [18] = strain W2, read-out: P. falciparum W2 (EC50)
# [19] = concentration giving 50% inhibition of growth of T brucei brucei Lister 427 cells, read-out: Tbb EC50
SMILES,EC50 [1],EC50 ([2]; strain C235),EC50 [3],EC50 [4],"EC50 [6, 18]","EC50 [8, 19]",EC50 [5],other results
"O=S(=O)(c1ccc(-c2ccc3ncnc(Nc4ccc(OCc5cccc(F)c5)c(Cl)c4)c3c2)cc1)N1CCOCC1 [Compound 10a, N-(3-Chloro-4-((3-fluorobenzyl)oxy)phenyl)-6-(4-(morpholinosulfonyl)phenyl)quinazolin-4-amine]",–,–,–,–,–,–,–,"EC50 ([1]; Leishmania major): 1.6 µM; EC50 [2, 9]: 410 nM; EC50 ([3]; Plasmodium falciparum): 220 nM; EC50 ([4]; Leishmania major): 1.3 µM; inhibition at 10 µM ([5]; Trypanosoma cruzi): -46%; EC50 [6, 10]: 690 nM; IC50 [7, 11]: > 15 µM; EC50 ([7]; Homo sapiens, HepG2, read-out: HepG2 cell growth EC50): > 15 µM; IC50 [7, 12]: > 20 µM; EC50 [8, 13]: 1390 nM; EC50 ([8]; concentration giving 50% inhibition of growth of T brucei brucei Lister 427 cells, listed as NEU-369, read-out: Tbb EC50): 1300 nM"
"O=S(=O)(c1cccc(-c2ccc3ncnc(Nc4ccc(OCc5cccc(F)c5)c(Cl)c4)c3c2)c1)N1CCOCC1 [Compound 10k, N-(3-Chloro-4-((3-fluorobenzyl)oxy)phenyl)-6-(3-(morpholinosulfonyl)phenyl)quinazolin-4-amine]",–,–,–,–,–,–,–,"EC50 ([1]; Leishmania major): > 15 µM; EC50 [2, 9]: 290 nM; EC50 ([3]; Plasmodium falciparum): 280 nM; EC50 ([4]; Leishmania major): > 15 µM; EC50 ([5]; Trypanosoma cruzi): 1.7 µM; EC50 [6, 10]: 400 nM; IC50 [7, 14]: > 15 µM; IC50 [7, 15]: > 20 µM; EC50 [8, 16]: 330 nM"
"O=S(=O)(c1ccc(-c2ccc3ncnc(Nc4ccc(OCc5cccc(F)c5)c(Cl)c4)c3c2)cc1)N1CCCCC1 [Compound 10l, N-(3-Chloro-4-((3-fluorobenzyl)oxy)phenyl)-6-(4-(piperidin-1-ylsulfonyl)phenyl)quinazolin-4-amine]",–,–,–,–,–,–,–,"EC50 ([1]; Leishmania major): > 15 µM; EC50 ([2]; Plasmodium falciparum): 240 nM; EC50 ([3]; Plasmodium falciparum): 180 nM; EC50 ([4]; Leishmania major): > 15 µM; inhibition at 10 µM ([5]; Trypanosoma cruzi): 1%; EC50 [6, 17]: 330 nM; IC50 [7, 14]: > 15 µM; IC50 [7, 15]: > 20 µM; EC50 [8, 16]: 320 nM"
"O=S(=O)(c1cccc(-c2ccc3ncnc(Nc4ccc(OCc5cccc(F)c5)c(Cl)c4)c3c2)c1)N1CCCCC1 [Compound 10m, N-(3-Chloro-4-((3-fluorobenzyl)oxy)phenyl)-6-(3-(piperidin-1-ylsulfonyl)phenyl)quinazolin-4-amine]",–,–,–,–,–,–,–,"EC50 ([1]; Leishmania major): > 15 µM; EC50 ([2]; Plasmodium falciparum): 350 nM; EC50 ([3]; Plasmodium falciparum): 330 nM; EC50 ([4]; Leishmania major): > 15 µM; EC50 ([5]; Trypanosoma cruzi): > 50 µM; EC50 [6, 17]: 590 nM; IC50 [7, 14]: > 15 µM; IC50 [7, 15]: > 20 µM; EC50 [8, 16]: 460 nM"
O=S(=O)(c1ccc(-c2ccc3ncnc(Nc4ccc(OCc5cccc(F)c5)c(Cl)c4)c3c2)cc1)N1CCCC1 [Compound 10n],> 15 µM,420 nM,200 nM,> 15 µM,800 nM,350 nM,–,"T. cruzi % inh at 10 μM [5]: (10)* %; IC50 [7, 12]: > 15 µM"
O=S(=O)(c1cccc(-c2ccc3ncnc(Nc4ccc(OCc5cccc(F)c5)c(Cl)c4)c3c2)c1)N1CCCC1 [Compound 10o],> 15 µM,300 nM,190 nM,> 15 µM,480 nM,250 nM,–,"T. cruzi % inh at 10 μM [5]: (32)* %; IC50 [7, 12]: > 15 µM"
"O=S(=O)(c1ccc(-c2ccc3ncnc(Nc4ccc(OCc5cccc(F)c5F)c(Cl)c4)c3c2)cc1)N1CCOCC1 [Compound 20h, N-(3-Chloro-4-((2,3-difluorobenzyl)oxy)phenyl)-6-(4-(morpholinosulfonyl)phenyl)quinazolin-4-amine Hydrochloride]",–,–,–,–,–,–,–,"IC50 [7, 11]: > 15 µM; EC50 [8, 13]: 820 nM"
"Cl.O=S(=O)(c1ccc(-c2ccc3ncnc(Nc4ccc(OCc5ccccc5F)c(Cl)c4)c3c2)cc1)N1CCOCC1 [Compound 20i, N-(3-Chloro-4-((2-fluorobenzypoxy)phenyl)-6-(4-(morpholinosulfonyl)phenyl)quinazolin-4-amine Hydrochloride]",> 15 µM,220 nM,130 nM,0.71 µM,570 nM,–,–,"IC50 [7, 12]: > 15 µM; EC50 ([8]; concentration giving 50% inhibition of growth of T brucei brucei Lister 427 cells, Hydrochloride, read-out: Tbb EC50): 1650 nM; EC50 ([8]; concentration giving 50% inhibition of growth of T brucei brucei Lister 427 cells, listed as NEU-565, Hydrochloride, read-out: Tbb EC50): 1700 nM"
Fc1cccc(COc2ccc(Nc3ncnc4ccc(-c5cccc(N6CCSCC6)c5)cc34)cc2Cl)c1 [NEU-713],10 µM,780 nM,440 nM,> 15 µM,1300 nM,770 nM,–,T. cruzi % inh at 10 μM [5]: (55)* %

# Second part, led by results:
EC50 [1],EC50 ([2]; strain C235),EC50 [3],EC50 [4],"EC50 [6, 18]","EC50 [8, 19]",EC50 [5],SMILES,other results
> 15 µM,19000 nM,19000 nM,> 15 µM,19000 nM,7500 nM,–,Fc1cccc(COc2ccc(Nc3ncnc4ccc(-c5cccc(-n6cccn6)c5)cc34)cc2Cl)c1 [NEU-709],T. cruzi % inh at 10 μM [5]: (10)* %
8.6 µM,760 nM,380 nM,> 15 µM,630 nM,370 nM,1.4 µM,Fc1cccc(COc2ccc(Nc3ncnc4ccc(-c5ccc(N6CCNCC6)cc5)cc34)cc2Cl)c1 [NEU-710],–
4.2 µM,110 nM,44 nM,1.9 µM,59 nM,550 nM,–,CN1CCN(c2cccc(-c3ccc4ncnc(Nc5ccc(OCc6cccc(F)c6)c(Cl)c5)c4c3)c2)CC1 [NEU-714],T. cruzi % inh at 10 μM [5]: (72)* %
> 15 µM,1100 nM,910 nM,0.98 µM,740 nM,840 nM,–,Fc1cccc(Cn2ncc3ccc(Nc4ncnc5ccc(-c6cccc(N7CCOCC7)c6)cc45)cc32)c1 [NEU-734],T. cruzi % inh at 10 μM [5]: (62)* %
2.2 µM,28 nM,29 nM,3.4 µM,51 nM,610 nM,3.9 µM,CN1CCN(S(=O)(=O)c2ccc(-c3ccc4ncnc(Nc5ccc(OCc6ccccc6)c(Cl)c5)c4c3)cc2)CC1 [NEU-764],–
1.9 µM,36 nM,41 nM,1.5 µM,110 nM,630 nM,9.9 µM,CN1CCN(S(=O)(=O)c2ccc(-c3ccc4ncnc(Nc5ccc(OCc6ccccc6)cc5)c4c3)cc2)CC1 [NEU-765],–
> 15 µM,58 nM,33 nM,5.9 µM,210 nM,780 nM,> 50 µM,COc1ccc(Nc2ncnc3ccc(-c4ccc(S(=O)(=O)N5CCN(C)CC5)cc4)cc23)cc1Cl [NEU-766],–
> 15 µM,730 nM,700 nM,6.1 µM,1500 nM,1500 nM,> 50 µM,CN1CCN(S(=O)(=O)c2ccc(-c3ccc4ncnc(Nc5ccccc5)c4c3)cc2)CC1 [NEU-767],–
> 15 µM,380 nM,360 nM,12 µM,780 nM,2000 nM,> 50 µM,CN1CCN(S(=O)(=O)c2ccc(-c3ccc4ncnc(Nc5ccc(F)cc5)c4c3)cc2)CC1 [NEU-768],–
> 15 µM,170 nM,110 nM,4.6 µM,390 nM,2400 nM,21 µM,CN1CCN(S(=O)(=O)c2ccc(-c3ccc4ncnc(Nc5ccc(Cl)cc5)c4c3)cc2)CC1 [NEU-769],–
1.2 µM,33 nM,38 nM,> 15 µM,84 nM,3300 nM,1.4 µM,CN1CCN(S(=O)(=O)c2cccc(-c3ccc4ncnc(Nc5ccc(OCc6cccc(F)c6)c(Cl)c5)c4c3)c2)CC1 [NEU-770],–
> 15 µM,40 nM,39 nM,> 15 µM,90 nM,1200 nM,1.5 µM,CN1CCN(S(=O)(=O)c2ccc(-c3ccc4ncnc(Nc5ccc6cnn(Cc7cccc(F)c7)c6c5)c4c3)cc2)CC1 [NEU-771],–
